As usually defined, the IC50 is the point on the concentration scale where inhibition reaches its midpoint.

Structures are written as SMILES.

The experiment concerns the target T1, Human autotaxin enzyme (Homo sapiens, UniProt Q13822).
T1 construct: purchased R&D System
Nature of the experiment: Evaluation of autotaxin inhibitor, Method C (18:0 Lyso PC substrate, choline assay, Resorufin fluorescence). The format is biochemical. As to conditions: Method C (Test Example 3), read-out: Inhibitory activity (enzyme inhibitory activity, IC50). A digest of the protocol:
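Recombinant human autotaxin with compound and 200 μM 18:0 Lyso PC (stock) in Tris-HCl pH 7.5, NaCl, MgCl2, Triton X-100, 2 h RT. Released choline detected via choline oxidase/peroxidase/Amplex-type reagent, 20 min, resorufin fluorescence 531/598 nm; % inhibition vs no-compound and no-enzyme controls, concentration-response curve.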
Take `C[C@H]1CN(CC(=O)N2CCOCC2)C(=O)c2cc(-c3ccc(Cl)cc3)nn21` [Compound I-0152]: the IC50 was at least 1 µM.
The figure for `C[C@H]1CN(CC(=O)N(C)CC(=O)O)C(=O)c2cc(-c3ccc(Cl)cc3)nn21` [Compound I-0155] is at least 1 µM.
As for `CCCCCC1CN(CC(=O)NCC(=O)N(C)C)C(=O)c2cc(-c3ccc(Cl)cc3)nn21` (stereo not drawn) [Compound I-0038], the IC50 fell in the range of 0.1 to 1 µM.
The figure for `CCCCCC1CN(CC(=O)N2CCCC2C)C(=O)c2cc(-c3ccc(Cl)cc3)nn21` (stereo not drawn) [Compound I-0081] is 0.1 to 1 µM.
The figure for `CCCCC1CN(CC(=O)N(CCC#N)CCC#N)C(=O)c2cc(-c3ccc(Cl)cc3)nn21` (stereo not drawn) [Compound I-0235] is 0.01 to 0.1 µM; for `O=C(O)c1cccc(CN2CC(CO)n3nc(-c4ccc(Cl)cc4)cc3C2=O)c1` (stereo not drawn) [Compound I-0174] it is at least 1 µM; for `CC(=O)Nc1cc(OC(F)(F)F)ccc1-c1cc2n(n1)[C@@H](C)CN(Cc1cccc(C(=O)O)c1)C2=O` [Compound I-0345] it is under 0.01 µM.
The result for `CCCOCC1CN(CC(=O)NC2(CC#N)CC2)C(=O)c2cc(-c3ccc(Cl)cc3)nn21` (stereo not drawn) [Compound I-0251] reads 0.1 to 1 µM; that for `CCCCC1CN(CC(=O)N2CCCC[C@H]2C)C(=O)c2cc(-c3ccc(Cl)cc3)nn21` (stereo partly drawn) [Compound I-0241], 0.1 to 1 µM.
With `O=C(O)C1CCN(C(=O)CN2CC(COCC(F)(F)F)n3nc(-c4ccc(Cl)cc4)cc3C2=O)CC1` (stereo not drawn) [Compound I-0318], the IC50 is under 0.01 µM.
The result for `CCCCC1CN(CC(=O)NCCCC#N)C(=O)c2cc(-c3ccc(Cl)cc3)nn21` (stereo not drawn) [Compound I-0244] reads 0.1 to 1 µM; that for `CCCOCC1CN(Cc2ccc(C#N)cc2)C(=O)c2cc(-c3ccc(Cl)cc3)nn21` (stereo not drawn) [Compound I-0291], 0.01 to 0.1 µM; that for `CCCCCC1CN(CC(=O)Nc2ccccc2C(=O)O)C(=O)c2cc(-c3ccc(Cl)cc3)nn21` (stereo not drawn) [Compound I-0042], 0.1 to 1 µM.
The figure for `CCCCCC1CN(CC(=O)OCC2CCCCN2)C(=O)c2cc(-c3ccc(Cl)cc3)nn21` (stereo not drawn) [Compound I-0114] is at least 1 µM; for `CCCCCC1CN(CC(=O)N2CCCC2CCCC)C(=O)c2cc(-c3ccc(Cl)cc3)nn21` (stereo not drawn) [Compound I-0079] it is 0.1 to 1 µM.
As to `CCCCCC1CN(Cc2ccc(C(N)=O)cc2)C(=O)c2cc(-c3ccc(Cl)cc3)nn21` (stereo not drawn) [Compound I-0147], the half-maximal inhibitory concentration (IC50) was in the range of 0.1 to 1 µM.
The figure for `C[C@H]1CN(Cc2cccc(C(=O)N3CCC(O)CC3)c2)C(=O)c2cc(-c3ccc(Cl)cc3)nn21` [Compound I-0167] is at least 1 µM; for `CCCCCC1CN(Cc2ccc(OC(C)=O)cc2)C(=O)c2cc(-c3ccc(Cl)cc3)nn21` (stereo not drawn) [Compound I-0140] it is at least 1 µM.
On to `CCCCCC1CN(CC(=O)N2CCCCC2C(=O)N2CCCCC2)C(=O)c2cc(-c3ccc(Cl)cc3)nn21` (stereo not drawn) [Compound I-0041], for which the 50% inhibitory concentration (IC50) fell in the range of 0.01 to 0.1 µM.
The result for `CCCCC1CN(CC(=O)NCC(=O)NC)C(=O)c2cc(-c3ccc(Cl)cc3)nn21` (stereo not drawn) [Compound I-0224] reads 0.1 to 1 µM; that for `N#CC1(NC(=O)CN2CC(COCC(F)(F)F)n3nc(-c4ccc(Cl)cc4)cc3C2=O)CC1` (stereo not drawn) [Compound I-0314], 0.1 to 1 µM; that for `CCCC(NC(=O)CN1C[C@H](C)n2nc(-c3ccc(Cl)cc3)cc2C1=O)C(=O)O` (stereo partly drawn) [Compound I-0161], 0.1 to 1 µM.
Regarding `CCCCC1CN(CC2CN(C(C)C)C(=O)O2)C(=O)c2cc(-c3ccc(Cl)cc3)nn21` (stereo not drawn) [Compound I-0275], the IC50 is 0.01 to 0.1 µM.
The result for `CCCCCC1CN(CC(=O)NCC)C(=O)c2cc(-c3ccc(Cl)cc3)nn21` (stereo not drawn) [Compound I-0108] reads 0.1 to 1 µM.
The figure for `CC(=O)Nc1cc(C#N)ccc1-c1cc2n(n1)[C@@H](C)CN(C[C@H]1CNC(=O)O1)C2=O` [Compound I-0338] is 0.01 to 0.1 µM.
The result for `CCCCCC1CN(Cc2cccc(OCCCN(C)C)c2)C(=O)c2cc(-c3ccc(Cl)cc3)nn21` (stereo not drawn) [Compound I-0135] reads 0.1 to 1 µM; that for `N#Cc1ccc(CN2CC3CC/C=C/CC(=O)Nc4cc(Cl)ccc4-c4cc(n3n4)C2=O)cc1` (stereo not drawn) [Compound I-0357], under 0.01 µM.
On to `CCCCCC1CN(Cc2ccc(CC(=O)OC)cc2)C(=O)c2cc(-c3ccc(Cl)cc3)nn21` (stereo not drawn) [Compound I-0143], for which the IC50 was at least 1 µM.
The result for `CCCCC1CN(CC(=O)OC)C(=O)c2cc(-c3ccc(Cl)cc3)nn21` (stereo not drawn) [Compound I-0249] reads 0.01 to 0.1 µM; that for `CNC(=O)Cc1cc(Cl)ccc1-c1cc2n(n1)[C@@H](C)CN(Cc1ccc(C#N)cc1)C2=O` [Compound I-0336], at least 1 µM.
The figure for `CCCCC1CN(C2CCCCC2=O)C(=O)c2cc(-c3ccc(Cl)cc3)nn21` (stereo not drawn) [Compound I-0263] is 0.1 to 1 µM; for `C[C@H]1CN(CC(=O)NC(Cc2ccccc2)C(=O)O)C(=O)c2cc(-c3ccc(Cl)cc3)nn21` (stereo partly drawn) [Compound I-0160] it is 0.01 to 0.1 µM.
On to `CCCCCC1CN(CC(=O)N2CCC[C@H]2C)C(=O)c2cc(-c3ccc(Cl)cc3)nn21` (stereo partly drawn) [Compound I-0117], for which the IC50 is 0.1 to 1 µM.
The figure for `C[C@H]1CN(Cc2ccc(C#N)cc2)C(=O)c2cc(-c3ccc(Cl)cc3NS(C)(=O)=O)nn21` [Compound I-0323] is 0.1 to 1 µM; for `CCOC(=O)CN1CC(CC(F)(F)F)n2nc(-c3ccc(Cl)cc3)cc2C1=O` (stereo not drawn) [Compound I-0023] it is at least 1 µM; for `CCCCCC1CN(CC(=O)N2CCC(C)C2)C(=O)c2cc(-c3ccc(Cl)cc3)nn21` (stereo not drawn) [Compound I-0074] it is 0.1 to 1 µM.
The figure for `CC(=O)Nc1cc(Cl)ccc1-c1cc2n(n1)[C@@H](C)CN(C[C@H]1CNC(=O)O1)C2=O` [Compound I-0316] is 0.01 to 0.1 µM; for `CCCCC1CN(Cc2ccc(C#N)cc2)C(=O)c2cc(-c3ccc(OC(F)(F)F)cc3CC#N)nn21` (stereo not drawn) [Compound I-0192] it is 0.1 to 1 µM; for `CCCCC1CN(CNC(C)=O)C(=O)c2cc(-c3ccc(Cl)cc3)nn21` (stereo not drawn) [Compound I-0151] it is 0.01 to 0.1 µM.
The result for `CCCCCC1CN(CC(=O)N2CCCC2)C(=O)c2cc(-c3ccc(Cl)cc3)nn21` (stereo not drawn) [Compound I-0097] reads 0.1 to 1 µM; that for `CC(=O)Nc1cc(C#N)ccc1-c1cc2n(n1)[C@@H](C)CN(CC1CCCO1)C2=O` (stereo partly drawn) [Compound I-0362], 0.01 to 0.1 µM.
As for `CCCCCC1CN(CC(=O)NC(CCC)C(=O)O)C(=O)c2cc(-c3ccc(Cl)cc3)nn21` (stereo not drawn) [Compound I-0062], the concentration for half-maximal inhibition (IC50) is under 0.01 µM.
The result for `CC1(C)CN(CC(=O)N2CCC(C(=O)O)CC2)C(=O)c2cc(-c3ccc(Cl)cc3)nn21` [Compound I-0016] reads at least 1 µM.
In the case of `CC(=O)NC1=C(c2cc3n(n2)[C@@H](C)CN(Cc2ccc(C#N)cc2)C3=O)C(O)CC(C(F)(F)F)C1` (stereo partly drawn) [Compound I-0369], the IC50 lay in the range of 0.1 to 1 µM.
The figure for `CCCCCC1CN(CC(=O)N2CCC[C@H](C)C2)C(=O)c2cc(-c3ccc(Cl)cc3)nn21` (stereo partly drawn) [Compound I-0080] is 0.01 to 0.1 µM; for `CCCCC1CN(CC(=O)N[C@@H]2CCC[C@H]2O)C(=O)c2cc(-c3ccc(Cl)cc3)nn21` (stereo partly drawn) [Compound I-0221] it is 0.1 to 1 µM.
The result for `CCCC1CN(Cc2ccc(C#N)cc2)C(=O)c2cc(-c3ccc(C(F)(F)F)cc3)nn21` (stereo not drawn) [Compound I-0182] reads at least 1 µM.
The result for `CCCCCC1CN(Cc2cccc(C(=O)N3CCC(O)CC3)c2)C(=O)c2cc(-c3ccc(Cl)cc3)nn21` (stereo not drawn) [Compound I-0137] reads 0.01 to 0.1 µM; that for `CCCCCC1CN(Cc2ccc(CO)cc2)C(=O)c2cc(-c3ccc(Cl)cc3)nn21` (stereo not drawn) [Compound I-0145], 0.1 to 1 µM; that for `CC(=O)NC[C@@H](O)CN1C[C@H](C)n2nc(-c3ccc(OC(F)(F)F)cc3NC(C)=O)cc2C1=O` [Compound I-0340], 0.01 to 0.1 µM.
For the compound `CCCCC1CN(CC(=O)NCCc2cn[nH]c2)C(=O)c2cc(-c3ccc(Cl)cc3)nn21` (stereo not drawn) [Compound I-0234], the IC50 is 0.1 to 1 µM.
The result for `CCCCC1CN(Cc2ccc(C#N)cc2)C(=O)c2cc(N(C)Cc3ccc(Cl)cc3)nn21` (stereo not drawn) [Compound I-0301] reads at least 1 µM; that for `CCCCC1CN(Cc2ccc(C#N)cc2)C(=O)c2cc(-c3ccc(Cl)cc3)nn21` (stereo not drawn) [Compound I-0183], 0.01 to 0.1 µM; that for `C[C@H]1CN(Cc2cccc(C#N)c2)C(=O)c2cc(-c3ccc(Cl)cc3)nn21` [Compound I-0164], 0.1 to 1 µM.
Turning to `CCCCC1CN(CCOc2ccccc2)C(=O)c2cc(-c3ccc(Cl)cc3)nn21` (stereo not drawn) [Compound I-0270], the IC50 lay in the range of 0.1 to 1 µM.
The figure for `C[C@H]1CN(CC(=O)N(C)CCC#N)C(=O)c2cc(-c3ccc(C#N)cc3NC(=O)C(C)(C)C)nn21` [Compound I-0359] is 0.01 to 0.1 µM.
The result for `CCCCCC1CN(CNC(C)=O)C(=O)c2cc(-c3ccc(Cl)cc3)nn21` (stereo not drawn) [Compound I-0008] reads 0.01 to 0.1 µM; that for `C[C@H]1CN(CC(=O)N(C)CCC#N)C(=O)c2cc(-c3ccc(C#N)cc3NC(=O)C(F)(F)F)nn21` [Compound I-0354], under 0.01 µM.
The figure for `CCCCCC1CN(CC(=O)N2CCCCC2CO)C(=O)c2cc(-c3ccc(Cl)cc3)nn21` (stereo not drawn) [Compound I-0090] is 0.01 to 0.1 µM.
As for `CCCCC1CN(CC2CCOC2)C(=O)c2cc(-c3ccc(Cl)cc3)nn21` (stereo not drawn) [Compound I-0269], the IC50 fell in the range of 0.01 to 0.1 µM.
With `CC(C)OCC1CN(Cc2ccc(C#N)cc2)C(=O)c2cc(-c3ccc(Cl)cc3)nn21` (stereo not drawn) [Compound I-0193], the concentration for half-maximal inhibition (IC50) was in the range of 0.1 to 1 µM.
For the compound `CC(=O)Nc1cc(Cl)ccc1-c1cc2n(n1)[C@@H](C)CN(C[C@@H]1CNC(=O)O1)C2=O` [Compound I-0317], the IC50 is 0.1 to 1 µM.
The result for `C[C@H]1CN(Cc2cccc(CC(=O)O)c2)C(=O)c2cc(-c3ccc(Cl)cc3)nn21` [Compound I-0163] reads 0.1 to 1 µM.
The result for `CCCCC[C@@H]1CN(CC(=O)N2CCC(C(=O)O)CC2)C(=O)c2cc(-c3ccc(Cl)cc3)nn21` [Compound I-0313] reads under 0.01 µM; that for `CCOC(=O)CN1CC(COCc2ccccc2)n2nc(-c3ccc(Cl)cc3)cc2C1=O` (stereo not drawn) [Compound I-0026], at least 1 µM; that for `CCCCCC1CN(CC(=O)N2CCC(CC(C)C)C2)C(=O)c2cc(-c3ccc(Cl)cc3)nn21` (stereo not drawn) [Compound I-0039], 0.1 to 1 µM.

Source of the values: patent US10189843B2, “Fused pyrazole derivative having autotaxin inhibitory activity” (The University of Tokyo, priority 2014, dated 2019).
